Results from ChEMBL document CHEMBL1126287, “Analogues of natural phloroglucinols as antagonists against both thromboxane A2 and leukotriene D4” (J Med Chem, 1992).

Experiments:
Format in all cases: functional
Cavia porcellus [1] = species on record: Cavia porcellus; assay: Inhibitory activity of the Compound was tested against U-46619 induced contraction of guinea pig trachea at 2*10e-5 M concentration.
Cavia porcellus [2] = species on record: Cavia porcellus; assay: Inhibitory activity of the Compound was tested against LTD4 induced contraction of guinea pig trachea at 2*10e-5 M concentration.
Cavia porcellus [3] = species on record: Cavia porcellus; assay: Inhibitory activity of the Compound was tested against U-46619 induced contraction of guinea pig trachea at 1*10e-5 M concentration.
Cavia porcellus [4] = species on record: Cavia porcellus; assay: Inhibitory activity of the Compound was tested against LTD4 induced contraction of guinea pig trachea at 2*10e-7 M concentration.
Cavia porcellus [5] = species on record: Cavia porcellus; assay: Inhibitory activity of the Compound was tested against LTD4 induced contraction of guinea pig trachea at 2*10e-6 M concentration.
Cavia porcellus [6] = species on record: Cavia porcellus; assay: Inhibitory concentration of the Compound was tested against LTD4 induced contraction of guinea pig trachea.
Cavia porcellus [7] = species on record: Cavia porcellus; assay: Inhibitory activity of the Compound was tested against U-46619 induced contraction of guinea pig trachea.
Cavia porcellus [8] = species on record: Cavia porcellus; assay: Inhibitory activity of the Compound was tested against LTD4 induced contraction of guinea pig trachea at 1*10e-6 M concentration.
Cavia porcellus [9] = species on record: Cavia porcellus; assay: Inhibitory activity of the Compound was tested against U-46619 induced contraction of guinea pig trachea at 3*10e-7 M concentration.
Cavia porcellus [10] = species on record: Cavia porcellus; assay: Inhibitory activity of the Compound was tested against LTD4 induced contraction of guinea pig trachea at 3*10e-7 M concentration.
Cavia porcellus [11] = species on record: Cavia porcellus; assay: Inhibitory activity of the Compound was tested against U-46619 induced contraction of guinea pig trachea at 1*10e-6 M concentration.
Cavia porcellus [12] = species on record: Cavia porcellus; assay: Inhibitory activity of the Compound was tested against U-46619 induced contraction of guinea pig trachea at 2 *10e-7 M concentration.
Cavia porcellus [13] = species on record: Cavia porcellus; assay: Inhibitory activity of the Compound was tested against U-46619 induced contraction of guinea pig trachea at 3*10e-6 M concentration.
Cavia porcellus [14] = species on record: Cavia porcellus; assay: Inhibitory activity of the Compound was tested against LTD4 induced contraction of guinea pig trachea at 3*10e-6 M concentration.
Cavia porcellus [15] = species on record: Cavia porcellus; assay: Inhibitory activity of the Compound was tested against U-46619 induced contraction of guinea pig trachea at 2*10e-6 M concentration.
Cavia porcellus [16] = species on record: Cavia porcellus; assay: Inhibitory activity of the Compound was tested against U-46619 induced contraction of guinea pig trachea at 2*10e-7 M concentration.
Cavia porcellus [17] = species on record: Cavia porcellus; assay: Inhibitory activity of the Compound was tested against U-46619 induced contraction of 2*10e-5 M concentration.
Cavia porcellus [18] = species on record: Cavia porcellus; assay: Inhibitory activity of the Compound was tested against LTD4 induced contraction of guinea pig trachea at 1*10e-5 concentration.
Cavia porcellus [19] = species on record: Cavia porcellus; assay: Inhibitory activity of the Compound was tested against LTD4 induced contraction of guinea pig trachea at 1*10e-5 M concentration.
Cavia porcellus [20] = species on record: Cavia porcellus; assay: Inhibitory activity of the Compound was tested against U-46619 induced contraction of guinea pig trachea at 2*10e-5 concentration.
Cavia porcellus [21] = species on record: Cavia porcellus; assay: Inhibitory activity of the Compound was tested against U-46619 induced contraction of guinea pig trachea at 1*10e-4 M concentration.
Cavia porcellus [22] = species on record: Cavia porcellus; assay: Inhibitory activity of the Compound was tested against LTD4 induced contraction of guinea pig trachea at 2*10e5- M concentration.
Cavia porcellus [23] = species on record: Cavia porcellus; assay: Inhibitory activity of the Compound was tested against LTD4 induced contraction of guinea pig trachea at 1*10e-4 M concentration.
Cavia porcellus [24] = species on record: Cavia porcellus; assay: Inhibitory activity of the Compound was tested against U-46619 induced contraction of guinea pig trachea at 3*10e-8 M concentration.

## COC1(OC)C(=O)C(C/C=C(\C)CCC=C(C)C)=C(O)C(CC=C(C)C)=C1O
Cavia porcellus [1]
  Inhibition: 94.9%
Cavia porcellus [2]
  Inhibition: 63.6%

## CCCC(=O)c1c(O)cc(O)cc1O
Cavia porcellus [3]
  Inhibition: 27.3%

## CCC(=O)c1c(O)cc(O)c(C(=O)CC)c1O
Cavia porcellus [4]
  Inhibition: 30.8%
Cavia porcellus [1]
  Inhibition: 53.4%
Cavia porcellus [5]
  Inhibition: 42.5%
Cavia porcellus [6]
  IC50: 12000 nM
Cavia porcellus [2]
  Inhibition: 97.1%

## CCC1(CC)C(=O)C(C(=O)C(C)C)=C(O)C(C(=O)C(C)C)=C1O
Cavia porcellus [6]
  IC50: 350 nM
Cavia porcellus [7]
  IC50: 310 nM
Cavia porcellus [8]
  Inhibition: 87.8%
Cavia porcellus [9]
  Inhibition: 49%
Cavia porcellus [10]
  Inhibition: 44.9%
Cavia porcellus [11]
  Inhibition: 84.2%

## CC(C)C(=O)C1=C(O)C(C)(C)C(O)=C(C(=O)C(C)C)C1=O
Cavia porcellus [4]
  Inhibition: 36.8%
Cavia porcellus [5]
  Inhibition: 60.7%
Cavia porcellus [6]
  IC50: 570 nM
Cavia porcellus [7]
  IC50: 580 nM
Cavia porcellus [12]
  Inhibition: 38.5%
Cavia porcellus [13]
  Inhibition: 80.2%
Cavia porcellus [14]
  Inhibition: 87%
Cavia porcellus [15]
  Inhibition: 61.2%

## CC(C)CC(=O)c1c(O)cc(O)cc1O
Cavia porcellus [7]
  IC50: 4700 nM
Cavia porcellus [3]
  Inhibition: 96.6%
Cavia porcellus [13]
  Inhibition: 22.7%

## CCCC(=O)c1c(O)cc(O)c(C(=O)CCC)c1O
Cavia porcellus [4]
  Inhibition: 12.5%
Cavia porcellus [5]
  Inhibition: 59.4%
Cavia porcellus [6]
  IC50: 1400 nM
Cavia porcellus [7]
  IC50: 2700 nM
Cavia porcellus [16]
  Inhibition: 8.4%
Cavia porcellus [2]
  Inhibition: 87%
Cavia porcellus [17]
  Inhibition: 72.5%
Cavia porcellus [15]
  Inhibition: 57%

## CCCCCCCC(=O)c1c(O)cc(O)c(C(=O)CCCCCCC)c1O
Cavia porcellus [1]
  Inhibition: 15.1%
Cavia porcellus [2]
  Inhibition: 17.4%

## CCCCC1(CCCC)C(=O)C(C(=O)C(C)C)=C(O)C(C(=O)C(C)C)=C1O
Cavia porcellus [1]
  Inhibition: 91.6%
Cavia porcellus [6]
  IC50: 1200 nM
Cavia porcellus [7]
  IC50: 1800 nM
Cavia porcellus [2]
  Inhibition: 100%
Cavia porcellus [13]
  Inhibition: 58.6%
Cavia porcellus [14]
  Inhibition: 66.5%

## CCCC1(CCC)C(=O)C(C(=O)C(C)C)=C(O)C(C(=O)C(C)C)=C1O
Cavia porcellus [1]
  Inhibition: 81.7%
Cavia porcellus [6]
  IC50: 5900 nM
Cavia porcellus [7]
  IC50: 6900 nM
Cavia porcellus [2]
  Inhibition: 88.5%
Cavia porcellus [13]
  Inhibition: 25.3%
Cavia porcellus [14]
  Inhibition: 28.5%

## CCCCCC1(CCCCC)C(=O)C(C(=O)C(C)C)=C(O)C(C(=O)C(C)C)=C1O
Cavia porcellus [1]
  Inhibition: 80.4%
Cavia porcellus [6]
  IC50: 2300 nM
Cavia porcellus [7]
  IC50: 5600 nM
Cavia porcellus [2]
  Inhibition: 95%
Cavia porcellus [13]
  Inhibition: 17%
Cavia porcellus [14]
  Inhibition: 58.3%

## CCC(C)C(=O)c1c(O)cc(O)c(C(=O)C(C)CC)c1O (stereo not given)
Cavia porcellus [1]
  Inhibition: 98%
Cavia porcellus [5]
  Inhibition: 45.5%
Cavia porcellus [6]
  IC50: 1400 nM
Cavia porcellus [7]
  IC50: 1700 nM
Cavia porcellus [2]
  Inhibition: 80.1%
Cavia porcellus [15]
  Inhibition: 34.7%

## CC(=O)c1c(O)cc(O)c(C(C)=O)c1O
Cavia porcellus [1]
  Inhibition: 44.3%
Cavia porcellus [2]
  Inhibition: 39.1%

## CC(C)CC(=O)c1c(O)cc(O)c(C(=O)CC(C)C)c1O
Cavia porcellus [4]
  Inhibition: 29.9%
Cavia porcellus [1]
  Inhibition: 100%
Cavia porcellus [5]
  Inhibition: 78.2%
Cavia porcellus [6]
  IC50: 560 nM
Cavia porcellus [7]
  IC50: 1500 nM
Cavia porcellus [16]
  Inhibition: 22.6%
Cavia porcellus [2]
  Inhibition: 100%
Cavia porcellus [15]
  Inhibition: 42%

## CCC(C)C(=O)c1c(O)cc(O)cc1O (stereo not given)
Cavia porcellus [7]
  IC50: 6000 nM
Cavia porcellus [3]
  Inhibition: 76.3%
Cavia porcellus [13]
  Inhibition: 13.8%
Cavia porcellus [18]
  Inhibition: 25.4%

## CCCCCC(=O)c1c(O)cc(O)cc1O
Cavia porcellus [6]
  IC50: 7600 nM
Cavia porcellus [7]
  IC50: 8900 nM
Cavia porcellus [2]
  Inhibition: 93.9%
Cavia porcellus [3]
  Inhibition: 56.9%
Cavia porcellus [19]
  Inhibition: 62.3%
Cavia porcellus [20]
  Inhibition: 100%

## CCCCCC(=O)c1c(O)cc(O)c(C(=O)CCCCC)c1O
Cavia porcellus [1]
  Inhibition: 25.9%
Cavia porcellus [2]
  Inhibition: 43.3%

## CC(C)=CCC/C(C)=C/COc1cc(O)c(C(=O)C(C)C)c(O)c1C
Cavia porcellus [1]
  Inhibition: 10.8%
Cavia porcellus [21]
  Inhibition: 50%
Cavia porcellus [22]
  Inhibition: 12.6%
Cavia porcellus [23]
  Inhibition: 50.9%

## CC(C)C(=O)c1c(O)cc(O)c(C(=O)C(C)C)c1O
Cavia porcellus [4]
  Inhibition: 28.9%
Cavia porcellus [1]
  Inhibition: 53.6%
Cavia porcellus [5]
  Inhibition: 48.5%
Cavia porcellus [6]
  IC50: 1200 nM
Cavia porcellus [2]
  Inhibition: 92.3%

## CC(C)C(=O)c1c(C(C)C)nn2ccccc12 [IBUDILAST]
Cavia porcellus [24]
  Inhibition: 85.4%

## CC(C)C(=O)c1c(O)cc(O)cc1O [PHLOROISOBUTYROPHENONE]
Cavia porcellus [7]
  IC50: 6600 nM
Cavia porcellus [3]
  Inhibition: 70.4%
Cavia porcellus [19]
  Inhibition: 32%
Cavia porcellus [13]
  Inhibition: 11%
